The values below come from patent publication US20250376484A1, “PRMT5 INHIBITORS AND USES THEREOF” (Gilead Sciences, Inc., priority 2024, published 2025).

Broadly, the CC50 is the concentration that lowers cell viability or growth by half. A word on the Papp A→B: it is how fast a substance crosses the layer from the apical side. A high value points to fast passage.

The structures appear in SMILES notation.

In one data set the target is T1, MDR1 (Homo sapiens, UniProt P08183).
T1 construct: host or cells: MDCK cells with canine Pgp knocked out and MDR1 knocked in (cPgp-KO-MDR1-KI)
T1 sequence (P08183 whole entry): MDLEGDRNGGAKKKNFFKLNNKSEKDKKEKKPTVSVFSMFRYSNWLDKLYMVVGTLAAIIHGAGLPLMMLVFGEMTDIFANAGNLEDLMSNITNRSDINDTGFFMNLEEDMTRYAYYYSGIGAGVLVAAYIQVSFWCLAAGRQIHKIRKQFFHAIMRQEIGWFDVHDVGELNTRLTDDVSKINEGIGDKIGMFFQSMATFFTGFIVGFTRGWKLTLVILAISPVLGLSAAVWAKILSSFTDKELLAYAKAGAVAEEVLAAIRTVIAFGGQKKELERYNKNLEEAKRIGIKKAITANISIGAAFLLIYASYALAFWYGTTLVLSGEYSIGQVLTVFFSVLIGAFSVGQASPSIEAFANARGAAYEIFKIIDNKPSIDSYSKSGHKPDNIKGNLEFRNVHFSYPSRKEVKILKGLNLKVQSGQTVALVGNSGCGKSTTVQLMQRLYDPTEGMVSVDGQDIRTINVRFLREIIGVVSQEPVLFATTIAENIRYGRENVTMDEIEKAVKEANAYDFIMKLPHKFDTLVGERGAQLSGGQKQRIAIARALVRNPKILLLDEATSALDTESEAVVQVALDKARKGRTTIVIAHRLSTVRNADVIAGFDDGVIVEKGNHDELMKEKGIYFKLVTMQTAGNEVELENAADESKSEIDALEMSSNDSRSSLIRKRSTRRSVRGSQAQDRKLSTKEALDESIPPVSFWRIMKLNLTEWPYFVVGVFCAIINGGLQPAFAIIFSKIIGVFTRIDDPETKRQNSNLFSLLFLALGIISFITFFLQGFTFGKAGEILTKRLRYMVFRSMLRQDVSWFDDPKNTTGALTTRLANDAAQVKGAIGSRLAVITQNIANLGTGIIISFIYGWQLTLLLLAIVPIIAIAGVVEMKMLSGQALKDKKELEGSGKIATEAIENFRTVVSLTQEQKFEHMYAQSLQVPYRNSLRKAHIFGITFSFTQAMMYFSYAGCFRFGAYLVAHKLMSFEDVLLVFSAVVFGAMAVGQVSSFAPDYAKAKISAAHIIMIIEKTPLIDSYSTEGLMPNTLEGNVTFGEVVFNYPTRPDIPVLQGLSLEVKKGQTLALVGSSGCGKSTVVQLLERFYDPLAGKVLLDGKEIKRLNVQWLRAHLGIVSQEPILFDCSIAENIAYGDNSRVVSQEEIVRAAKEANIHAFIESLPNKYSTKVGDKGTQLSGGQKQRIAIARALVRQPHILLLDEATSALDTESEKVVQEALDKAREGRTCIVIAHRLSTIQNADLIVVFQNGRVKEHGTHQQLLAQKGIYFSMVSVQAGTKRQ
The experiment in a line: MDR1/BCRP assay: efflux ratio in cPgp-KO-MDR1-KI cells. The class given is in vitro ADME. As to conditions: dog, MDCK-MDR1, efflux ratio Papp (B-to-A)/Papp (A-to-B), 2-hour time point, read-out: cPgp-KO-MDR1-KI (ER). Here is the method:
(§1) cPgp-KO-MDCK-WT, cPgp-KO-MDR1-KI, and cPgp-KO—BCRP—KI cells (all from Sigma) were cultured in Dulbecco's Modification of Eagle's Medium (DMEM) with 4.5 g/L glucose, sodium pyruvate, and GlutaMAX (Gibco) supplemented with 1% Pen/Strep and 10% fetal bovine serum. The cells were maintained in an incubator at 37° C., 90% humidity, and 5% CO2 until reaching confluence over 5 days in 96-well transwell plates. Experiments were conducted using an HBSS donor buffer (Invitrogen) containing 10 mM HEPES and 15 mM glucose, adjusted to pH 7.4. The receiver well contained HBSS buffer supplemented with 1% BSA, 10 mM HEPES, and 15 mM glucose, and the pH was adjusted to 7.4. TEER values were measured to assess membrane integrity after an initial equilibration with BSA-free transport buffer for 15 minutes. The experiment was started by adding dosing solutions containing test compounds at 1 μM. Cells were dosed on the apical (A) side or basolateral (B) side at 100 μl and 200 μl, respectively, to determine forward (A to B) and reverse (B to A) permeability. At the 2-hour time point, 50 μl samples were collected from the receiver compartment. Each compound was tested in 2 separate replicate wells for each condition. All samples were immediately collected into plates, and 50 μL of acetonitrile was added. Subsequently, 350 μl of 30:70 methanol: acetonitrile containing internal standard was added to precipitate proteins and stabilize the test compounds. To test for non-specific binding and compound instability, the total amount of the drug was quantified at the end of the experiment and compared to the material present in the original dosing solution as a percentage of the recovery. All samples were analyzed by LC-MS/MS using electrospray ionization.
(§2) The apparent permeability, Papp, and % recovery were calculated as follows: […]

The test system of data set [1] is HCT116 MTAP-deleted cell lines. Nature of the data set: Cell viability assay (CellTitre-Glo), HCT116 MTAP-deleted. As to conditions: for CC50: Homo sapiens, HCT-116, 168 h, HCT116 MTAP-deleted cells, 7 days of treatment, CTG luminescence, read-out: MTAP^del HCT116 CC50; for Selectivity: WT HCT116 CC50 versus MTAP^del HCT116 CC50. The class given is cell-based. Here is the method: (§3) Control compounds were analyzed in parallel each time for quality control.
(§4) In Brief, on Day-1, a serial dilution of stock compounds in DMSO was performed using BioMek liquid handlers and dispensed using Echo acoustic dispenser into 384 well plates. Both tool compounds and sample compounds were spotted in the same plate for a dose response of PRMT5 inhibitors. Compound plates were stored as frozen until the cells were ready for seeding.
(§5) On Day 0, 100 HCT WT or HCT116 MTAP-deleted cells were seeded in compound-containing 384 well plates (50 μl per well) in RPMI 1640 media supplemented with 10% heat inactivated fetal bovine serum, Glutamax and penicillin streptomycin using EL460 liquid dispenser 5 μl cassette (BioTek, part no. 7170011). After equilibrating the plate in room temperature, the cells were incubated for 7 days inside the sealed incubator set at 37° C. with […] and 5% CO2.
(§6) On Day 7, the viability of cells was measured using a CTG assay kit (CellTitre-Glo; Promega cat no. G7573). Shortly, 40 μl per well of luminescent cell viability assay reagent were dispensed using EL460 liquid dispenser 5 μl cassette. CTG luminescence signal was measured using an EnVision plate reader (PerkinElmer) in accordance with manufacturer's instruction. The CC50 values for each compound after 7 days of treatment were calculated using 4 parameter non-linear logistical curve fit.

A short description of data set [2]: Cell viability assay (CellTitre-Glo), HCT116 WT. It counts as cell-based. As to conditions: human; HCT116 WT cells, 7 days of treatment, CTG luminescence. Here is the method:
as §3, §4, §5, §6

For another data set, the target named is T2, BCRP (Homo sapiens, UniProt Q9UNQ0).
T2 construct: host or cells: MDCK cells with canine Pgp knocked out and BCRP knocked in (cPgp-KO-BCRP-KI)
T2 sequence (Q9UNQ0 1-655): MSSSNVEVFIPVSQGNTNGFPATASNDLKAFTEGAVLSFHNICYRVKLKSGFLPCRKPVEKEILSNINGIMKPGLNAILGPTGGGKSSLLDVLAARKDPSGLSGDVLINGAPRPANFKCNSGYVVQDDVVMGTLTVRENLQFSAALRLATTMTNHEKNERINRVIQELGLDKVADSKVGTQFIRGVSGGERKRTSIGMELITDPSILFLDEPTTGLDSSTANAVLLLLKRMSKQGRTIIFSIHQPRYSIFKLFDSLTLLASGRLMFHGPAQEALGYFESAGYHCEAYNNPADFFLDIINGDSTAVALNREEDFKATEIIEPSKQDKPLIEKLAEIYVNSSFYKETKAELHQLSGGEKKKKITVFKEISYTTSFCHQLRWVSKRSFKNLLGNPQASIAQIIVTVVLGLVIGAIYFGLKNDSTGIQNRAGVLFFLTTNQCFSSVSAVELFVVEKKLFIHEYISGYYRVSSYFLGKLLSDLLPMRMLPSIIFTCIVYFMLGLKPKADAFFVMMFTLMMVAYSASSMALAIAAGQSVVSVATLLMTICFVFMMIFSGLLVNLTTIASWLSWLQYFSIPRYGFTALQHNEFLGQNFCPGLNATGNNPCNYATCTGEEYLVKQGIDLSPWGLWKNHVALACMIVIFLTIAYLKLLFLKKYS
Nature of the data set: MDR1/BCRP assay: efflux ratio in cPgp-KO-BCRP-KI cells. It counts as in vitro ADME. Conditions: dog, efflux ratio Papp (B-to-A)/Papp (A-to-B), 2-hour time point, read-out: cPgp-KO-BCRP-KI (ER). Here is the method: as §1, §2

Data set [3] is described as follows: MDR1/BCRP assay: permeability in cPgp-KO-MDCK-WT cells. Conditions: dog, test compounds at 1 μM, 2-hour time point, pH 7.4. It counts as in vitro ADME. Here is the method:
as §1, §2

Regarding `Cn1ncc2c(NC(=O)C(=O)N3CCC[C@@H]4Oc5cc(OC(F)(F)F)cc(F)c5[C@@H]43)cnc(N)c21` [Example Ca-6, N-(7-amino-1-methyl-1H-pyrazolo[3,4-c]pyridin-4-yl)-2-((4aS,9bS)-9-fluoro-7-(trifluoromethoxy)-3,4,4a,9b-tetrahydrobenzofuro[3,2-b]pyridin-1(2H)-yl)-2-oxoacetamide], at MDR1, the efflux ratio at 2 h, 1 μM is 0.9. Further, in data set [1], the CC50 is 13 nM and the Selectivity is recorded as 144. The compound also returned a CC50 at 7 days in data set [2] of 1880 nM. Also, the efflux ratio at 2 h, 1 μM at BCRP turned out to be 2.6. The compound also had a Papp A→B at 2 h, 1 µM in data set [3] of 9.3 ×10⁻⁶ cm/s.
Turning to `C[C@@H]1C[C@@H]2Oc3nc(C(F)(F)F)ccc3[C@@H]2N(C(=O)C(=O)Nc2cnc(N)c3c2cnn3C)C1` [Example Ca-8, N-(7-amino-1-methyl-1H-pyrazolo[3,4-c]pyridin-4-yl)-2-((3R,4aS,9bS)-3-methyl-7-(trifluoromethyl)-3,4,4a,9b-tetrahydrofuro[2,3-b:4,5-b′]dipyridin-1(2H)-yl)-2-oxoacetamide], at MDR1, the efflux ratio at 2 h, 1 μM came to 2.5. In data set [1], the CC50 worked out at 13 nM and the Selectivity amounted to 93. In data set [2], this compound came in with a CC50 at 7 days of 1200 nM. Further, at BCRP, the efflux ratio at 2 h, 1 μM was 9. Further, in data set [3], the Papp A→B at 2 h, 1 µM amounted to 19.7 ×10⁻⁶ cm/s.
On to `C[C@@H]1CN(C(=O)C(=O)Nc2cnc(N)c3c2cnn3C)[C@H]2c3ccc(C(F)(F)F)cc3C[C@H]2O1` [Example Ca-10, N-(7-amino-1-methyl-1H-pyrazolo[3,4-c]pyridin-4-yl)-2-((2R,4aS,9aR)-2-methyl-7-(trifluoromethyl)-2,3,9,9a-tetrahydroindeno[2,1-b][1,4]oxazin-4(4aH)-yl)-2-oxoacetamide], for which, at MDR1, the efflux ratio at 2 h, 1 μM came out at 1. Further, in data set [1], the CC50 turned out to be 28 nM and the Selectivity came out at 96. In data set [2], this compound registered a CC50 at 7 days of 2720 nM. Besides, the efflux ratio at 2 h, 1 μM on BCRP is 1.1. Moreover, the Papp A→B at 2 h, 1 µM in data set [3] turned out to be 17.7 ×10⁻⁶ cm/s.
`Cn1ncc2c(NC(=O)C(=O)N3CC[C@H]4C[C@@H]3c3c(F)cc(C(F)(F)F)cc3O4)cnc(N)c21` [Example Ca-11, N-(7-amino-1-methyl-1H-pyrazolo[3,4-c]pyridin-4-yl)-2-((2S,6R)-7-fluoro-9-(trifluoromethyl)-3,4-dihydro-2H-2,6-methanobenzo[b][1,5]oxazocin-5(6H)-yl)-2-oxoacetamide]: on MDR1, the efflux ratio at 2 h, 1 μM came out at 1.4. Besides, in data set [1], the CC50 turned out to be 18 nM and the Selectivity is given as 115. In data set [2], this compound gave a CC50 at 7 days of 2070 nM. Moreover, the efflux ratio at 2 h, 1 μM on BCRP amounted to 1.3. Besides, the Papp A→B at 2 h, 1 µM in data set [3] is 10.7 ×10⁻⁶ cm/s.
